The nature of data set [1]: Stability analysis of anatabine base with and without BHT as a preservative. In kind it is physicochemical. On the procedure: See, for example, Tables 3 and 4 in Examples 4 and 5, respectively. Purity of the anatabine may be retained for extended periods of time. […] Further, anatabine remains stable when stored at a variety of temperatures. For example, the anatabine retains the indicated purity when stored at −20° C. to −10° C., −20° C. to 0° C., −10° C. to 0° C., 0° C. to 4° C., 2° C. to 8° C., 5° C. to 10° C., 10° C. to 15° C., 15° C. to 25° C., or 25° C. to 28° C. Stability is determined by any suitable art-recognized method. For example, anatabine stability may be monitored by high performance liquid chromatography (HPLC), liquid chromatography-mass spectroscopy (LC-MS), or nuclear magnetic resonance (NMR).
Anatabine base stability was analyzed with and without BHT (3,5-di-tert-butyl-4-hydroxytoluene). The initial purity of BHT-free anatabine base was 94.95%. The initial purity of anatabine base with BHT was 94.87%.

The test system of data set [2] is monoamine oxidase (MAO). The following applies: known from Williams et al. U.S. Pat. No. 6,929,811; cited from earlier work.

For `C1=CCC(c2cccnc2)NC1` (stereo not shown) [anatabine base without BHT, Anatabine], the “Purity (%)” value in data set [1] (day 1, storage temperature 2-8° C.) came out at 94.44%; in data set [1] (day 1, storage temperature 25-28° C.), 89.63%; in data set [1] (day 1, storage temperature −20° C.), 93.90%; in data set [1] (day 2, storage temperature 2-8° C.), 94.05%; in data set [1] (day 2, storage temperature 25-28° C.), 87.59%; in data set [1] (day 2, storage temperature −20° C.) it was 94.62%. Also, the “Purity (%)” value stood at 91.65% in data set [1] (day 3, storage temperature 2-8° C.); 80.74% in data set [1] (day 3, storage temperature 25-28° C.); 93.87% in data set [1] (day 3, storage temperature −20° C.); 90.12% in data set [1] (day 12, storage temperature 2-8° C.); 79.59% in data set [1] (day 12, storage temperature 25-28° C.); 94.01% in data set [1] (day 12, storage temperature −20° C.). Further, the “Inhibition of monoamine oxidase (MAO)” value in data set [2] is “inhibit monoamine oxidase (MAO)”.
